Experimental data from patent publication US20170000749A1, “Methods for Treating Cognitive Disorders Using Inhibitors of Histone Deacetylase” (Forum Pharmaceuticals, Inc., priority 2008, published 2017).
Read-outs that look alike come from different tables or passages of the source.

Legend:
[1] = biological target: one or more of HDAC-1, HDAC-2, HDAC-3, HDAC-4, HDAC-5, HDAC-6, HDAC-7, HDAC-8, HDAC-9, HDAC-10 and HDAC-11; assay: Inhibition of Histone Deacetylase Enzymatic Activity (Boc-Lys(Ac)-AMC substrate, Fluor-de-Lys developer); assay type: biochemical; conditions: read-out: HDAC Inhibition (IC50 μM) HDAC Enzyme
Method: The following protocol is used to assay the compounds of the disclosure.
The mixture is pre-incubated for 5 minutes at room temperature. The reaction is started by bringing the temperature to 37° C. and adding 16 μl substrate. Total reaction volume is 50 μl.
In the Tables 8, 9 and 10, A≦0.05 μM; 0.05 μM<B≦0.1 μM; 0.1 μM<C≦1 μM; and 1 μM<D≦10 μM.

[2] = test system: HDAC activity in primary mouse cortical cultures; assay: Whole-Cell Histone Deacetylase (HDAC) Inhibition Assay in Primary Mouse Cortical Cultures; assay type: cell-based
Method: Primary neocortical cultures are established through the dissection of the neocortex from E17 embryos harvested from time-pregnant Balb/C mice. Following dissection, the neocortical tissue specimens undergo digestion by incubation at 37° C. for 10 minutes in dissection medium (1×HBSS/10 mM HEPES/1 mM Sodium Pyruvate) supplemented with (0.25%) Trypsin and (0.1%) DNase I. Digested tissue is washed and resuspended in plating medium (NeuroBasal/10% HS/0.5 mM L-Glutamine (Invitrogen Corporation)) for trituration. Additional plating medium is added, and the contents are passed over a 70 um cell-strainer. The cell-density is quantified using a hemacytometer, and dilutions are made to allow for the plating of 50000 cells/well/100 uL in 96-well PDL-coated plates. Plates are incubated for 4-5 hours in 37° C./5% CO2-incubator, after which time the entire volume is exchanged to feeding medium (NeuroBasal/2% B-27 Serum-free supplement/0.5 mM L-Glutamine/1% Penicillin-Streptomycin (Invitrogen Corporation)). The cultures undergo two 50% fresh feeding medium exchanges at 3 days in vitro (DIV3), and again at DIV7.
Compounds for testing are resuspended in dimethyl sulphoxide (DMSO), and further diluted in DMSO for a ten-point dose-response curve, with appropriate controls. Each master plate is assayed in triplicate. […] Three DIV9 culture plates are leveled to 50 uL/well, onto which each has overlaid 50 uL/well of the diluted daughter plate. The plates are returned to the 37° C./5% CO2-incubator for 16-18 hours.
The next step of the assay involves the exposure of a HDAC colorimetric substrate, comprising an acetylated lysine side chain, to the compound-treated neuronal cultures. Based on the ability of the compound to inhibit HDAC activity in the neuronal cultures, the substrate is deacetylated by HDACs, and subsequently sensitized. […] Compound-incubated culture plates are again leveled to 50 uL/well and 2 uL/well of 7.5 mM BOC-Lys (Ac)-AMC substrate is added and thoroughly mixed. Plates are returned to the 37° C./5% CO2-incubator for 1 hour.
The final addition to the culture plates entails treatment with a Fluor de Lys™-based developer (BIOMOL Research Laboratories, Inc.) to produce a fluorophore, which is analyzed using a spectrophotometer. The developer solution (1×Fluor de Lys™/1% NP-40/1 uM TSA in HDAC Buffer Solution) is prepared, and 50 uL/well is added to each of the wells of the culture plates. […] The plates are returned to the 37° C./5% CO2-incubator for 10-15 minutes, after which time, they are removed and set in the dark at room temperature for 5-10 minutes.
Primary neocortical cultures were established through the dissection of the neocortex from E17 embryos harvested from time-pregnant Balb/C mice. Following dissection, the neocortical tissue specimens underwent digestion by incubation at 37° C. for 10 minutes in dissection medium (1×HBSS/10 mM HEPES/1 mM Sodium Pyruvate) supplemented with (0.25%) Trypsin and (0.1%) DNase I. Digested tissue was washed and resuspended in plating medium (NeuroBasal/10% HS/0.5 mM L-Glutamine (Invitrogen Corporation)) for trituration. Additional plating medium was added, and the contents passed over a 70 um cell-strainer. The cell-density was quantified using a hemacytometer, and dilutions made to allow for the plating of 50000 cells/well/100 uL in 96-well PDL-coated plates. Plates were incubated for 4-5 hours in 37° C./5% CO2-incubator, after which time the entire volume was exchanged to feeding medium (NeuroBasal/2% B-27 Serum-free supplement/0.5 mM L-Glutamine/l % Penicillin-Streptomycin (Invitrogen Corporation)). The cultures underwent two 50% fresh feeding medium exchanges at 3 days in vitro (DIV3), and again at DIV7.
Compounds for testing were resuspended in dimethyl sulphoxide (DMSO), and further diluted in DMSO for a ten-point dose-response curve, with appropriate controls. Each master plate was assayed in triplicate.

[3] = whole-cell (WC), mouse cortical neurons, Table 10, read-out: HDAC Inhibition (IC50 μM) WC mouse cortical neurons
[4] = whole-cell (WC), mouse cortical neurons, Table 8, read-out: HDAC Inhibition (IC50 μM) WC mouse cortical neurons
[5] = whole-cell (WC), mouse cortical neurons, Table 9, read-out: HDAC Inhibition (IC50 μM) WC mouse cortical neurons

| SMILES | IC50 ([1]; Table 8) | IC50 [2, 4] | IC50 [2, 5] | also measured |
| --- | --- | --- | --- | --- |
| O=C(NO)c1ccc(CN2C(=O)c3ccccc3CCc3ccccc32)cc1 [N-hydroxy-4-((6-oxo-11,12-dihydrodibenzo[b,f]azocin-5(6H)-yl)methyl)benzamide] | – | – | – | IC50 ([1]; Table 10): 0.1 to 1 µM; IC50 [2, 3]: 1 to 5 µM |
| COCCN1c2ccccc2N=C(c2ccc(C(=O)NO)cc2)c2ccccc21 [(Z)—N-hydroxy-4-(5-(2-methoxyethyl)-5H-dibenzo[b,e][1,4]diazepin-11-yl)benzamide] | 0.1 to 1 µM | 1 to 5 µM | – | – |
| O=C(NO)c1ccc(OCCN2C(=O)c3ccccc3Oc3ccccc32)cc1 | – | – | – | IC50 ([1]; Table 10): < 0.05 µM; IC50 [2, 3]: < 1 µM |
| O=C(NO)c1ccc(OCC(=O)N2Cc3ccccc3Oc3ccccc32)cc1 | – | – | – | IC50 ([1]; Table 10): 0.1 to 1 µM; IC50 [2, 3]: 1 to 5 µM |
| O=C(NO)c1cnc(N2C[C@@H]3C[C@H]2CN3c2cncc(C(F)(F)F)c2)nc1 [N-hydroxy-2-((1S,4S)-5-(5-(trifluoromethyl)pyridin-3-yl)-2,5-diazabicyclo[2.2.1]heptan-2-yl)pyrimidine-5-carboxamide] | – | – | < 1 µM | IC50 ([1]; Table 9): < 0.05 µM |
| O=C(NO)c1cnc(N2C[C@@H]3C[C@H]2CN3c2cccc3nonc23)nc1 [2-((1S,4S)-5-(benzo[c][1,2,5]oxadiazol-4-yl)-2,5-diazabicyclo[2.2.1]heptan-2-yl)-N-hydroxypyrimidine-5-carboxamide] | – | – | < 1 µM | IC50 ([1]; Table 9): < 0.05 µM |
| O=C(NO)c1ccc(C2=Nc3ccc(C(F)(F)F)nc3Oc3ccccc32)cc1 [(Z)-N-hydroxy-4-(2-(trifluoromethyl)benzo[f]pyrido[2,3-b][1,4]oxazepin-6-yl)benzamide] | 0.05 to 0.1 µM | 5 to 15 µM | – | – |
| O=C(NO)c1ccc(C2=Nc3ccccc3Oc3cccc(F)c32)cc1 [(Z)-4-(1-fluorodibenzo[b,f][1,4]oxazepin-11-yl)-N-hydroxybenzamide] | < 0.05 µM | 5 to 15 µM | – | – |
| CC(C)N1c2ccccc2N=C(c2ccc(C(=O)NO)cc2)c2ccccc21 [(Z)—N-hydroxy-4-(5-isopropyl-5H-dibenzo[b,e][1,4]diazepin-11-yl)benzamide] | < 0.05 µM | < 1 µM | – | – |
| O=C(NO)c1ccc(C2=Nc3ccccc3[S+]([O-])c3ccccc32)cc1 (centres unmarked) | 0.1 to 1 µM | 1 to 5 µM | – | – |
| O=C(NO)c1ccc(CNC2=Nc3ccccc3N(C3CC3)c3ccccc32)cc1 [(E)-4-((5-cyclopropyl-5H-dibenzo[b,e][1,4]diazepin-11-ylamino)methyl)-N-hydroxybenzamide] | 0.1 to 1 µM | 5 to 15 µM | – | – |
| O=C(NO)c1ccc(C2=Nc3cncnc3N3CCc4cccc2c43)cc1 | 0.1 to 1 µM | 5 to 15 µM | – | – |
| O=C(NO)c1ccc(OCCN2C(=O)c3cccnc3Oc3ccccc32)cc1 | – | – | – | IC50 ([1]; Table 10): < 0.05 µM; IC50 [2, 3]: < 1 µM |
| C[S+]([O-])c1cccc2c1Oc1ccccc1N=C2c1ccc(C(=O)NO)cc1 (centres unmarked) [(Z)—N-hydroxy-4-(4-(methylsulfinyl)dibenzo[b,f][1,4]oxazepin-11-yl)benzamide] | 0.05 to 0.1 µM | 1 to 5 µM | – | – |
| O=C(NO)c1ccc(OCCN2C(=O)CCOc3ccccc32)cc1 | – | – | – | IC50 ([1]; Table 10): < 0.05 µM; IC50 [2, 3]: < 1 µM |
| O=C(NO)c1ccc(C2=Nc3ccccc3N(C3CC3)c3ccc(F)cc32)cc1 [(Z)-4-(5-cyclopropyl-2-fluoro-5H-dibenzo[b,e][1,4]diazepin-11-yl)-N-hydroxybenzamide] | 0.05 to 0.1 µM | 1 to 5 µM | – | – |
| O=C(NO)c1cnc(N2C[C@@H]3C[C@H]2CN3c2cccc(F)c2)nc1 [2-((1S,4S)-5-(3-fluorophenyl)-2,5-diazabicyclo[2.2.1]heptan-2-yl)-N-hydroxypyrimidine-5-carboxamide] | – | – | < 1 µM | IC50 ([1]; Table 9): < 0.05 µM |
| O=C(CCCCCN1C(=O)CN=C(c2ccccc2)c2ccccc21)NO [(Z)-N-hydroxy-6-(2-oxo-5-phenyl-2,3-dihydro-1H-benzo[e][1,4]diazepin-1-yl)hexanamide] | – | – | – | IC50 ([1]; Table 10): 0.1 to 1 µM; IC50 ([2]; read-out: HDAC Inhibition (IC50 μM) WC mouse cortical neurons, Table 10): 1 to 5 µM |
| O=C(CCCCCCCN1C(=O)c2cccnc2N(C2CC2)c2ccccc21)NO [8-(11-cyclopropyl-5-oxo-5H-benzo[b]pyrido[2,3-e][1,4]diazepin-6(11H)-yl)-N-hydroxyoctanamide] | – | – | – | IC50 ([1]; Table 10): 0.1 to 1 µM; IC50 [2, 3]: < 1 µM |
| O=C(NO)c1cnc(N2C[C@@H]3C[C@H]2CN3C(=O)C(c2ccccc2)c2ccccc2)nc1 [2-((1S,4S)-5-(2,2-diphenylacetyl)-2,5-diazabicyclo[2.2.1]heptan-2-yl)-N-hydroxypyrimidine-5-carboxamide] | – | – | 1 to 5 µM | IC50 ([1]; Table 9): 0.05 to 0.1 µM |
| O=C(NO)c1ccc(C2=Nc3ccccc3Oc3c(OC(F)(F)F)cccc32)cc1 [(Z)—N-hydroxy-4-(4-(trifluoromethoxy)dibenzo[b,f][1,4]oxazepin-11-yl)benzamide] | 0.1 to 1 µM | > 15 µM | – | – |
| O=C(NO)c1cnc(N2C[C@@H]3C[C@H]2CN3C(=O)OCc2ccccc2)nc1 [(1S,4S)-benzyl 5-(5-(hydroxycarbamoyl)pyrimidin-2-yl)-2,5-diazabicyclo[2.2.1]heptane-2-carboxylate] | – | – | < 1 µM | IC50 ([1]; Table 9): < 0.05 µM |
| O=C(NO)c1cnc(N2C[C@@H]3C[C@H]2CN3c2cc(C(F)(F)F)ccn2)nc1 [N-hydroxy-2-((1S,4S)-5-(4-(trifluoromethyl)pyridin-2-yl)-2,5-diazabicyclo[2.2.1]heptan-2-yl)pyrimidine-5-carboxamide] | – | – | < 1 µM | IC50 ([1]; Table 9): < 0.05 µM |
| O=C(NO)c1cnc(N2C[C@@H]3C[C@H]2CN3C(c2ccccc2)c2ccccc2)nc1 [2-((1S,4S)-5-benzhydryl-2,5-diazabicyclo[2.2.1]heptan-2-yl)-N-hydroxypyrimidine-5-carboxamide] | – | – | 1 to 5 µM | IC50 ([1]; Table 9): < 0.05 µM |
| O=C(CCCCCCN1Cc2ccccc2Oc2ccccc21)NO [7-(dibenzo[b,f][1,4]oxazepin-10(11H)-yl)-N-hydroxyheptanamide] | – | – | – | IC50 ([1]; Table 10): 0.1 to 1 µM; IC50 [2, 3]: > 15 µM |
| O=C(NO)c1ccc(C2=Nc3cc(Cl)ccc3Oc3ccccc32)cc1 [(Z)-4-(8-chlorodibenzo[b,f][1,4]oxazepin-11-yl)-N-hydroxybenzamide] | 0.1 to 1 µM | 5 to 15 µM | – | – |
| O=C(NO)c1cnc(N2C[C@@H]3C[C@H]2CN3c2ccc3c(c2)OCO3)nc1 [2-((1S,4S)-5-(benzo[d][1,3]dioxol-5-yl)-2,5-diazabicyclo[2.2.1]heptan-2-yl)-N-hydroxypyrimidine-5-carboxamide] | – | – | < 1 µM | IC50 ([1]; Table 9): < 0.05 µM |
| CN(C)CCOc1ccc2c(c1)C(c1ccc(C(=O)NO)cc1)=Nc1ccccc1O2 [(Z)-4-(2-(2-(dimethylamino)ethoxy)dibenzo[b,f][1,4]oxazepin-11-yl)-N-hydroxybenzamide] | – | > 15 µM | – | – |
| O=C(NO)c1cnc(N2C[C@@H]3C[C@H]2CN3C(=O)C2CCCCC2)nc1 [2-((1S,4S)-5-(cyclohexanecarbonyl)-2,5-diazabicyclo[2.2.1]heptan-2-yl)-N-hydroxypyrimidine-5-carboxamide] | – | – | 1 to 5 µM | – |
